Laboratory results reported in ChEMBL document CHEMBL1629476, “Synthesis and biological evaluation of aminoketones” (2010).
≈ marks a conversion by molar mass, not a printed value.

Key:
Format in all cases: functional
[1] = test system: Staphylococcus aureus; assay: Antibacterial activity against Staphylococcus aureus after 16 hrs by serial dilution method
[2] = test system: Pseudomonas aeruginosa; assay: Antibacterial activity against Pseudomonas aeruginosa after 16 hrs by serial dilution method
[3] = test system: Escherichia coli; assay: Antibacterial activity against Escherichia coli after 16 hrs by serial dilution method
[4] = test system: Bacillus subtilis; assay: Antibacterial activity against Bacillus subtilis after 16 hrs by serial dilution method

SMILES: COc1ccc(F)c(C(Nc2ccc(F)cc2F)C2CCCCC2=O)c1 (stereo not drawn)
- MIC [1]: 3.12 mg/L (≈ 8.6 µM)
- MIC [2]: 1.61 mg/L (≈ 4.44 µM)
- MIC [3]: 1.61 mg/L (≈ 4.44 µM)
- MIC [4]: 1.61 mg/L (≈ 4.44 µM)

SMILES: CC(C)(C)c1ccc(NC(c2ccccc2)C2CCCCC2=O)cc1 (stereo not drawn)
- MIC [1]: 6.25 mg/L (≈ 18.6 µM)
- MIC [2]: 6.25 mg/L (≈ 18.6 µM)
- MIC [3]: 12.5 mg/L (≈ 37.3 µM)
- MIC [4]: 6.25 mg/L (≈ 18.6 µM)

SMILES: O=C1CCCCC1C(Nc1ccc(F)cc1F)c1ccc(F)cc1 (stereo not drawn)
- MIC [1]: 1.61 mg/L (≈ 4.84 µM)
- MIC [2]: 1.61 mg/L (≈ 4.84 µM)
- MIC [3]: 1.61 mg/L (≈ 4.84 µM)
- MIC [4]: 1.61 mg/L (≈ 4.84 µM)

SMILES: N#Cc1ccc(NC(c2ccccc2Cl)C2CCCCC2=O)cc1 (stereo not drawn)
- MIC [1]: 3.12 mg/L (≈ 9.22 µM)
- MIC [2]: 1.61 mg/L (≈ 4.76 µM)
- MIC [3]: 1.61 mg/L (≈ 4.76 µM)
- MIC [4]: 1.61 mg/L (≈ 4.76 µM)

SMILES: O=C1CCCCC1C(Nc1ccc(F)c(F)c1)c1ccccc1F (stereo not drawn)
- MIC [1]: 3.12 mg/L (≈ 9.37 µM)
- MIC [2]: 1.61 mg/L (≈ 4.84 µM)
- MIC [3]: 1.61 mg/L (≈ 4.84 µM)
- MIC [4]: 1.61 mg/L (≈ 4.84 µM)

SMILES: C=CCOc1ccccc1C(Nc1cccc(F)c1)C1CCCCC1=O (stereo not drawn)
- MIC [1]: 6.25 mg/L (≈ 17.7 µM)
- MIC [2]: 6.25 mg/L (≈ 17.7 µM)
- MIC [3]: 3.12 mg/L (≈ 8.84 µM)
- MIC [4]: 3.12 mg/L (≈ 8.84 µM)

SMILES: COc1cccc(NC(c2cccc(C)c2O)C2CCCCC2=O)c1 (stereo not drawn)
- MIC [1]: 1.61 mg/L (≈ 4.75 µM)
- MIC [2]: 1.61 mg/L (≈ 4.75 µM)
- MIC [3]: 1.61 mg/L (≈ 4.75 µM)
- MIC [4]: 1.61 mg/L (≈ 4.75 µM)

SMILES: CCc1ccc(C(Nc2cc(F)c(F)c(F)c2)C2CCCCC2=O)cc1 (stereo not drawn)
- MIC [1]: 12.5 mg/L (≈ 34.6 µM)
- MIC [2]: 12.5 mg/L (≈ 34.6 µM)
- MIC [3]: 12.5 mg/L (≈ 34.6 µM)
- MIC [4]: 12.5 mg/L (≈ 34.6 µM)

SMILES: CCc1ccc(C(Nc2ccc(C)c([N+](=O)[O-])c2)C2CCCCC2=O)cc1 (stereo not drawn)
- MIC [1]: 6.25 mg/L (≈ 17.1 µM)
- MIC [2]: 25 mg/L (≈ 68.2 µM)
- MIC [3]: 6.25 mg/L (≈ 17.1 µM)
- MIC [4]: 6.25 mg/L (≈ 17.1 µM)

SMILES: O=C1CCCCC1C(Nc1cccc2ccccc12)c1cc2ccccc2o1 (stereo not drawn)
- MIC [1]: 3.12 mg/L (≈ 8.46 µM)
- MIC [2]: 1.61 mg/L (≈ 4.37 µM)
- MIC [3]: 1.61 mg/L (≈ 4.37 µM)
- MIC [4]: 3.12 mg/L (≈ 8.46 µM)

SMILES: Cc1cc2cc(NC(c3ccncc3)C3CCCCC3=O)ccc2[nH]1 (stereo not drawn)
- MIC [1]: 3.12 mg/L (≈ 9.37 µM)
- MIC [2]: 1.61 mg/L (≈ 4.84 µM)
- MIC [3]: 1.61 mg/L (≈ 4.84 µM)
- MIC [4]: 1.61 mg/L (≈ 4.84 µM)

SMILES: CO/N=C(\C(=O)N[C@@H]1C(=O)N2C(C(=O)O)=C(CSc3nc(=O)c(O)nn3C)CS[C@H]12)c1csc(N)n1 [CEFTRIAXONE]
- MIC [1]: 3.12 mg/L (≈ 5.63 µM)
- MIC [2]: 1.61 mg/L (≈ 2.91 µM)
- MIC [3]: 1.61 mg/L (≈ 2.91 µM)
- MIC [4]: 1.61 mg/L (≈ 2.91 µM)
